PMC11048566, “The Development of a Regulator of Human Serine Racemase for N-Methyl-D-aspartate Function” (Biomedicines, 2024)
pIC50: −log10 of the molar value.

Experiments:
[1] = molecular target: T1, human serine racemase (hSR) (Homo sapiens, UniProt Q9GZT4); assay: Two-step enzymatic assay of hSR racemization (hSR, then DAAO/HRP/Amplex Red); type: biochemical; settings: within the physiological range of ATP concentration
T1 construct: 6xHis (C); made in house; host or cells: E. coli BL21 (pET42b-hSR)
T1 sequence (Q9GZT4 1-340): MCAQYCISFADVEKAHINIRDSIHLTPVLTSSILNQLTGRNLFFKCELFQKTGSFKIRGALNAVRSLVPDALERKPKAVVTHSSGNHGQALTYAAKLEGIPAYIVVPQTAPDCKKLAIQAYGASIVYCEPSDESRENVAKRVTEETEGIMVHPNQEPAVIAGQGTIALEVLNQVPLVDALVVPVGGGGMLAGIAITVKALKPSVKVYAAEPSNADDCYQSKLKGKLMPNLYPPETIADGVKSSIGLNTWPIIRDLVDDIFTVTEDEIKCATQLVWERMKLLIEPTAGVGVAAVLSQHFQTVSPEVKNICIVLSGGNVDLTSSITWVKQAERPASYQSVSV
Description: This assay was designed by the formation of D-serine by hSR and the oxidation of D-serine by D-amino acid oxidase (DAAO) and horseradish peroxidase (HRP) with the peroxidase substrate Amplex Red^TM (10-acetyl-3,7-dihydroxyphenoxazine) (Thermo Fisher Scientific, Lagoas Park, Porto Salvo, Portugal). The hSR activity assay reaction was carried out in 100 mM HEPES buffer, pH 8.0, containing 2.4 µg of hSR protein, 50 µM PLP, 1 mM MgCl2, 0.25 mM ATP, 400 mM L-serine, and 2 times serially diluted α12G (8 mM to 0.2 µM). Compound-free wells were used as blank controls in the assay. All reactions were performed in duplicates. The reaction mixtures were incubated at 37 °C for 4 h. The reaction was stopped by heating the reaction mixtures at 95 °C for 10 min and storage at 4 °C. A reaction mixture for the second-step enzymatic assay, DAAO assay, with a final volume of 100 µL was made with a 10 µL sample from hSR assay, 45 µM FAD, 10 units of HRP, 60 ng DAAO, 10 mM lead acetate, 10 mM Amplex Red^TM, and 100 mM Tris HCl (pH = 8.5). Lead acetate was used to conjugate α12G as the latter would inhibit the DAAO function in the fluorometric assay, leading to an […] of the effects of α12G on hSR. The fluorescence was detected by the TECAN Infinite 200 Microplate Reader (GMI, MN, USA). The racemization percentage was calculated as follows: racemization % = (Fsample, 20 min − Fsample, 0 min)/(Fblank, 20 min − Fblank, 0 min) × 100%. […] The two-step enzymatic assay described in Section 2.3 was designed by the formation of D-serine by hSR and the consequent oxidation of D-serine by DAAO. The inhibition of DAAO, which also degrades D-serine, by α12G will lead to overestimating the effects of racemization by hSR. […] Therefore, lead acetate was applied to conjugate α12G for the determination of racemization. […] On the contrary, when the concentration of α12G is higher than 2 mM, the racemization activity of hSR is inhibited.

[2] = molecular target: T2, hSR (Homo sapiens, UniProt Q9GZT4); design: method as in PMID 29899358; settings: 2 mM ATP, cited from earlier work
T2 construct: 6xHis (C); made in house; host or cells: E. coli BL21 (pET42b-hSR)
T2 sequence (Q9GZT4 1-340): T1 sequence (Q9GZT4 1-340)

[3] = molecular target: D-amino acid oxidase (DAAO) (Homo sapiens, UniProt P14920); assay: DAAO enzymatic assay; type: biochemical
Description: A reaction mixture for the DAAO assay, with a final volume of 100 µL was made with 1 µL 2 times serially diluted α12G (4 µM to 7.8 nM), 45 µM FAD, 10 units of HRP, 60 ng DAAO, 10 mM Amplex Red^TM, 5 mM D-serine, and 100 mM Tris HCl (pH = 8.5). All reactions were performed in duplicates. The fluorescence was detected by a fluorometric meter (TECAN Infinite 200). The racemization percentage was calculated as follows: activity % = (Fsample, 20 min − Fsample, 0 min)/(Fblank, 20 min − Fblank, 0 min) × 100%.

[4] = system: SR; settings: two-step enzymatic assay; read-out: IC50 of SR inhibition; cited from earlier work
[5] = system: SR; assay: D-serine and L-serine levels in cerebral cortex and plasma after IV DMM (LC-MS/MS); type: in vivo, C57BL/6J male mice; settings: 400 mg/kg DMM IV, 30 min after administration, vs vehicle, n = 3
Description: For the determination of DAA concentration, C57BL/6J male mice received 50, 100, 200, and 400 mg/kg DMM (TGI, Tokyo, Japan) IV, and the mice were euthanized 30 min later. Cerebral cortex and plasma samples (n = 3 − 9) were collected and stored at −80 °C until the time of analysis. The brain tissues were weighed and homogenized on ice with 5-fold volumes of 1000 ng/mL tolbutamide (internal standard, IS, Sigma-Aldrich, St. Louis, MO, USA)) in methanol (Merck KGaA, Darmstadt, Germany). The plasma was combined with 4-fold volumes of 1250 ng/mL IS in methanol and vortexed for 2 min. The homogenates were centrifuged at 12,000× g […] for 10 min at 4 °C in an Eppendorf 5417R centrifuge (Eppendorf, Hamburg, Germany). The supernatant was passed through a 0.22 μm filter (Merck KGaA, Darmstadt, Germany) and analyzed by liquid chromatography–tandem mass spectrometry (LC-MS/MS) using the following method: An Agilent 1260 LC quaternary pump with an Agilent 1260 LC infinity autosampler and an Agilent 1100 column oven (Marshall Scientific, Hampton, NH, USA) were used to inject the samples onto an Astec Chirobiotic column (5 μm, 250 × 4.6 mm I.D., Sigma-Aldrich, St. Louis, MO, USA). The mobile phase was a 20/80 mixture of mobile phase A (0.1% formic acid (Sigma-Aldrich, St. Louis, MO, USA) in ddH2O) and mobile phase B (0.1% formic acid in acetonitrile), and the run was isocratic at a flow rate of 0.3 mL/min. Quantitation was achieved by MS/MS detection in positive ion multiple reaction monitoring (MRM) mode for analyte and IS using an AB SCIEX 3200 triple quadrupole ion trap mass spectrometer (AB Sciex, Framingham, MA, USA). The parameters for curtain gas, ion spray voltage, temperature, ion source gas 1, and ion source gas 2 were 10 psi, 5000 V, 550 °C, 35 psi, and 30 psi, respectively. AB SCIEX Analyst® (version 1.6.3, AB Sciex, Framingham, MA, USA) software was used for system control and data processing. To investigate the regulation of racemization by hSR, we applied DMM, the pro-drug of malonate, to C57BL/6J male mice. The mice were euthanized 30 min after the administration. The cerebral cortex and plasma were harvested and analyzed by LC-MS/MS to quantify D-serine and L-serine levels after the treatment with DMM (Figure 1). […] L-serine levels were also raised in the cerebral cortex 1.44 times (p < 0.001; n = 3; Student’s t-test) and in plasma 1.55 times (p < 0.05; n = 3; Student’s t-test).

Which results are given for `Nc1ncnc2c1ncn2[C@@H]1O[C@H](COP(=O)(O)OP(=O)(O)OP(=O)(O)O)[C@@H](O)[C@H]1O` [ATP]?
ATP concentration that promotes the most racemization by hSR [1]: 0.25 mM; Increase in enzyme activation, L-serine dehydration (kcat/KM 8.1 to 253 s^−1 M^−1) ([2]; 200 mM L-serine, 37 °C): 31 fold; Enhancement of D-serine dehydration (kcat/KM 0.6 to 2.4 s^−1 M^−1) [2]: 4 fold; Enhancement of L-serine racemization (kcat/KM 9.2 to 17.5 s^−1 M^−1) [2]: 1.9 fold

For `Nc1ccccc1N1CCOCC1` [x-0458, 2-morpholinoaniline, reference compound], which “Effect on DAAO” value [3] is on record?
The value was “has an inhibitory effect on DAAO”.

What about the pIC50 [4] of the same compound?
The pIC50 was 4.97.

Which results are given for `COC(=O)CC(=O)OC` [DMM, dimethyl malonate]?
D-serine level in plasma, raised [5]: 1.75 times; D-serine level in the cerebral cortex, raised [5]: 1.43 times; L-serine level in plasma, raised [5]: 1.55 times; L-serine level in the cerebral cortex, raised [5]: 1.44 times
